Results reported in paper PMC3038857, “Using Nuclear Receptor Activity to Stratify Hepatocarcinogens” (PLoS ONE, 2011).
Read-outs that look alike come from different tables or passages of the source.

Legend:
Mouse Liver [1] = details: ref ToxRefDB, cited from earlier work
Rat Liver [2] = details: ref ToxRefDB, cited from earlier work
Mouse Liver [3] = details: ref ToxRefDB, cited from earlier work; remark: listed apart in the source
Mouse Liver [4] = details: ref ToxRefDB, cited from earlier work; remark: listed apart in the source
CYP1A2 = test: CLZD_CYP1A2: Change in expression of CYP1A2 (primary human hepatocytes); format: cell-based; details: 24 hr
Protocol: (§1) This is a collection of multiplexed gene expression assays focused on Phase I and II xenobiotic metabolizing enzymes and transporters. Human primary cell cultures were treated with chemicals at 5 concentrations (0.004-40 [drawing 42] M) for 6, 24 and 48 hr. Concentration- and time-response profiles of chemicals were measured by the expression of key nuclear receptor target genes, activities of CYP1A enzymes (EROD), and cell morphology. Fourteen gene targets were monitored by quantitative nuclease protection assay including: six representative cytochrome P-450 genes, four hepatic transporters, three Phase II conjugating enzymes, and one endogenous metabolism gene involved in cholesterol synthesis. The target genes associated with nuclear receptor pathways are as follows: [drawing 43] and [drawing 44] with [drawing 45]; [drawing 46] , [drawing 47] , [drawing 48] , [drawing 49] , [drawing 50] and [drawing 51] with [drawing 52]; [drawing 53] , [drawing 54] , [drawing 55] and [drawing 56] with [drawing 57]; [drawing 58] with [drawing 59]; and [drawing 60] with [drawing 61] . Assays were run in primary human hepatocyte cultures by CellzDirect Invitrogen Inc. (Durham, NC), in collaboration with EPA.
(§2) Multiplexed Gene Expression in Human Primary Hepatocytes: This is a collection of multiplexed gene expression assays focused on Phase I and II metabolic enzymes and transporters. […] Fourteen gene targets were monitored by quantitative nuclease protection assay: six representative cytochrome P450 genes, four hepatic transporters, three Phase II conjugating enzymes, and one endogenous metabolism gene involved in cholesterol synthesis. Cells were exposed at 5 concentrations (0.004-40 µM) for 6, 24 or 48 hr. Gene targets are sentinels for five nuclear receptor signaling pathways: AhR, CAR, PXR, FXR, and PPARα. All gene are associated with nuclear receptor pathways: CYP1A1 and CYP1A2 with AHR; ABCB1, ABCG2, CYP2B6, CYP2C9, CYP2C19 and UGT1A1 with CAR; CYP3A4, GSTA2, SLCO1B1 and SULT2A1 with PXR; HMGCS2 with PPARA; and ABCB11 with FXR. […] Detailed description of the methods, data and analysis methods for this dataset will be presented in a separate publication.

CYP3A4 = test: CLZD_CYP3A4: Change in expression of CYP3A4 (primary human hepatocytes); format: cell-based; details: 24 hr
How it was run: (§3)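 Five-point concentration series (0.004-40 µM) applied to primary human hepatocytes; 6/24/48 hr timepoints; transcript quantified by multiplexed nuclease protection.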

[5] = molecular target: T1, PPARG (peroxisome proliferator-activated receptor gamma) (Homo sapiens, UniProt P37231); test: ATG_PPARg_TRANS: Factorial reporter gene assay (HepG2); format: cell-based
T1 construct: expressed in transfected cells; host or cells: HepG2
T1 sequence (P37231 1-505): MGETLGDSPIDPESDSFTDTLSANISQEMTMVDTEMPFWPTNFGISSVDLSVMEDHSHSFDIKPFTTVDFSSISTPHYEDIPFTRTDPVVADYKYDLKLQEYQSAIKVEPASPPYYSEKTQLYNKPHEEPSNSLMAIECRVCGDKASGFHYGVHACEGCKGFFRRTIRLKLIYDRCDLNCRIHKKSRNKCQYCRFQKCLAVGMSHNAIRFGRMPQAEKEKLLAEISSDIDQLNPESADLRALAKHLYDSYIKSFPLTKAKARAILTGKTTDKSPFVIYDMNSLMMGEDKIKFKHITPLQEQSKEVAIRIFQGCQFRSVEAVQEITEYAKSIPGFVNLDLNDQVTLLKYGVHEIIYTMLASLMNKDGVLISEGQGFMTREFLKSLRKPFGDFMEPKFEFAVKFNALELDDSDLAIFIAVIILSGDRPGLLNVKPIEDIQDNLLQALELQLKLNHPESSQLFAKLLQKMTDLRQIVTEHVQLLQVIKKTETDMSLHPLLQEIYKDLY
Protocol: (§4) A multiple reporter transcription unit (MRTU) library consisting of 48 transcription factor binding sites was transfected into the HepG2 human liver hepatoma cell line. In addition to the cis-acting reporter genes (CIS), a modification of the approach was used to generate a trans-system (TRANS) with a mammalian one-hybrid assay consisting of an additional 25 MRTU library reporting the activity of nuclear receptor super-family members. […] These assays were performed by Attagene Inc. (Morrisville NC) under contract to EPA.
(§5) In addition to the cis-acting reporter genes (CIS), a modification of the approach was used to generate a trans-system (TRANS) with a mammalian one-hybrid assay consisting of an additional 25 MRTU library reporting the activity of nuclear receptor super-family members. […] Chemicals were then tested in the CIS and TRANS assays at seven concentrations starting at the MTC and followed by three-fold serial dilutions. These assays were performed by Attagene Inc. (Morrisville NC) under contract to EPA. Detailed description of the methods, data and analysis methods for this dataset will be presented in a separate publication.

CYP2B6 = test: CLZD_CYP2B6: Change in expression of CYP2B6 (primary human hepatocytes); format: cell-based; details: 24 hr
How it was run: as §3

PXR (NR1I2) [6] = molecular target: T2, PXR (NR1I2) (Homo sapiens, UniProt O75469); test: ATG_PXRE_CIS: Factorial reporter gene assay (HepG2); format: cell-based; design: endogenous in cells; host or cells: HepG2
T2 sequence (O75469 1-434): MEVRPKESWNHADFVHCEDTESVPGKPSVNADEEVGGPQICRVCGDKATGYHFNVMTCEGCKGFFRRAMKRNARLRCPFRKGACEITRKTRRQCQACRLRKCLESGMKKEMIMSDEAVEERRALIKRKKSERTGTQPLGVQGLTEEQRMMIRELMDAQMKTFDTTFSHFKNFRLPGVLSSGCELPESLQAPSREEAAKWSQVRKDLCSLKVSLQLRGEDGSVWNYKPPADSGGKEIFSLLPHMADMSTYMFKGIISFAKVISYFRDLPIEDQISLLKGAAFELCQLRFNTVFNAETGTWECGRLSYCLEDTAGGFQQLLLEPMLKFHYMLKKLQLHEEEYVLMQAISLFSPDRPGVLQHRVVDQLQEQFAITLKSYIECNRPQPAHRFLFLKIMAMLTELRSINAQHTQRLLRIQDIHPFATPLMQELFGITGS
How it was run: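 Transfected HepG2 line; multiplexed reporter read-out. PXRE = cis library (48 TF sites); ERRg/FXR/PPARg = trans one-hybrid library (25 units). Dose series of 7, MTC downward by 3x.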

Rat Liver [7] = details: ref ToxRefDB, cited from earlier work; remark: listed apart in the source
Rat Liver [8] = details: ref ToxRefDB, cited from earlier work; remark: listed apart in the source
PXR (NR1I2) [9] = molecular target: T2, PXR (NR1I2); test: ATG_PXR_TRANS: Factorial reporter gene assay (HepG2); format: cell-based; design: endogenous in cells; host or cells: HepG2
Protocol: as §4, §5

PXR Human (NR1I2) = molecular target: T3, PXR Human (NR1I2) (Homo sapiens, UniProt O75469); test: NCGC_PXR_Agonist_human: GAL4 BLAM Reporter gene assay: PXR Human; format: cell-based; details: agonist mode
T3 sequence (O75469 146-434 limits assumed): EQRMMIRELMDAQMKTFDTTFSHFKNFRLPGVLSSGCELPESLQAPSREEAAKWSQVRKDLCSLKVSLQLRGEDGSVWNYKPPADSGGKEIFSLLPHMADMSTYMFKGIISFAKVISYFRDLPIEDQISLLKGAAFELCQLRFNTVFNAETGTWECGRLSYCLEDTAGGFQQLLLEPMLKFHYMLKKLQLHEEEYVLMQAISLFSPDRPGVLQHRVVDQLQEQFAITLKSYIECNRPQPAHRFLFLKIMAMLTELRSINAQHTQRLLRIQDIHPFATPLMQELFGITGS
Protocol: These assays measure binding constants and enzyme inhibition values for nuclear receptors. The targets include [drawing 67] , [drawing 68] , [drawing 69] , [drawing 70] , [drawing 71] , [drawing 72] , [drawing 73] , [drawing 74] , [drawing 75] and [drawing 76] . Each of the nuclear receptor targets was measured in agonist mode. Assays were run at the NIH Chemical Genomics Center (Rockville, MD).
Cell-based HTS Assays: These assays measuring binding constants and enzyme inhibition values for nuclear receptors. The targets include AR, ER, FXR, LXR, PPARα, PPARδ, PPARγ, RXRα, RXRβ and PXR. Each of the nuclear receptor targets was measured in both agonist and antagonist mode, but the antagonist data is still undergoing analysis due to possible interference between cytotoxicity and assay activity, so antagonist mode data were not used in the present analysis. Assays were run at the NIH Chemical Genomics Center (Rockville, MD) as part of the Tox21 collaboration. […] The R^2 was required to be ≥0.5. Values where only the highest concentration exceeded 50% activity were excluded to eliminate weak or false positives. Detailed description of the methods, data and analysis methods for this dataset will be presented in a separate publication.

CYP1A1 = test: CLZD_CYP1A1: Change in expression of CYP1A1 (primary human hepatocytes); format: cell-based; details: 24 hr
Protocol: as §1, §2

PXR (NR1I2) [10] = molecular target: T2, PXR (NR1I2); test: NVS_NR_hPXR: Human PXR Fluormone PXR (SXR) green (cell-free HTS); format: binding
From the text: These are a collection of biochemical assays measuring binding constants and enzyme inhibition values. Chemicals were initially screened at a single concentration in duplicate wells at a concentration of 10 [drawing 63] M for cytochrome P-450 assays and 25 [drawing 64] M for all others. […] These assays were run by Caliper Life Sciences (Hanover, MD) under contract to EPA. Short assay descriptions are available at: http://www.caliperls.com/products/contract-research/in-vitro/.
Cell-free HTS Assays: A collection of biochemical assays measuring binding constants and enzyme inhibition values. […] These assays were run by Caliper Life Sciences (Hanover, MD) under contract to EPA. Short assay descriptions are available at http://www.caliperls.com/products/contract-research/in-vitro/. Values for all endpoints were imported into GeneData Screener (Basel, Switzerland) and normalised to solvent controls from the same plate as the tested compounds and expressed as percent of neutral control. Concentration-response curves were fit in GeneData Screener (Basel, Switzerland) Condeseo module using the Hill equation and AC50 values were determined. […] Detailed description of the methods, data and analysis methods for this dataset are described in a separate publication.

CCCCOCCOCCOCc1cc2c(cc1CCC)OCO2 [r246]
CHR_Mouse_Liver_3_NeoplasticLesion (Mouse Liver [1]; mouse, chronic study): 6
CHR_Rat_Liver_3_NeoplasticLesion (Rat Liver [2]; rat, chronic study): 0
CHR_Mouse_Liver_2_PreneoplasticLesion (Mouse Liver [3]; mouse, chronic study): 6
CHR_Mouse_Liver_1_AnyLesion (Mouse Liver [4]; mouse, chronic study): 6
CLZD_CYP1A2_24 (CYP1A2): 5.617
CLZD_CYP3A4_24 (CYP3A4): 5.527
ATG_PPARg_TRANS ([5]; HepG2): 4.602
CLZD_CYP2B6_24 (CYP2B6): 5.592
ATG_PXRE_CIS (PXR (NR1I2) [6]; HepG2): 5.42
CHR_Rat_Liver_1_AnyLesion (Rat Liver [7]; rat, chronic study): 6
CHR_Rat_Liver_2_PreneoplasticLesion (Rat Liver [8]; rat, chronic study): 6
ATG_PXR_TRANS (PXR (NR1I2) [9]; HepG2): 4.824

CCOC(=O)COc1cc(-c2nn(C)c(OC(F)F)c2Cl)c(F)cc1Cl [r271]
CHR_Mouse_Liver_3_NeoplasticLesion (Mouse Liver [1]; chronic study, mouse liver): 6
CHR_Rat_Liver_3_NeoplasticLesion (Rat Liver [2]; chronic study, rat liver): 0
CHR_Mouse_Liver_2_PreneoplasticLesion (Mouse Liver [3]; chronic study, mouse liver): 6
CHR_Mouse_Liver_1_AnyLesion (Mouse Liver [4]; chronic study, mouse liver): 6
CLZD_CYP3A4_24 (CYP3A4): 5.138
ATG_PPARg_TRANS ([5]; HepG2 reporter): 4.328
CLZD_CYP2B6_24 (CYP2B6): 4.918
ATG_PXRE_CIS (PXR (NR1I2) [6]; HepG2 reporter): 4.26
CHR_Rat_Liver_1_AnyLesion (Rat Liver [7]; chronic study, rat liver): 6
NCGC_PXR_Agonist_human (PXR Human (NR1I2)): 4.477
CHR_Rat_Liver_2_PreneoplasticLesion (Rat Liver [8]; chronic study, rat liver): 6
ATG_PXR_TRANS (PXR (NR1I2) [9]; HepG2 reporter): 4.538

CNc1cnn(-c2cccc(C(F)(F)F)c2)c(=O)c1Cl [row 222]
CHR_Mouse_Liver_3_NeoplasticLesion (Mouse Liver [1]; chronic mouse study, liver): 6
CHR_Mouse_Liver_2_PreneoplasticLesion (Mouse Liver [3]; chronic mouse study, liver): 6
CLZD_CYP1A1_24 (CYP1A1): 5.028
CHR_Mouse_Liver_1_AnyLesion (Mouse Liver [4]; chronic mouse study, liver): 6
CLZD_CYP1A2_24 (CYP1A2): 4.939
CLZD_CYP3A4_24 (CYP3A4): 5.266
CLZD_CYP2B6_24 (CYP2B6): 4.975
ATG_PXRE_CIS (PXR (NR1I2) [6]; HepG2): 4.62

CCCN(CCC)c1c([N+](=O)[O-])cc(S(N)(=O)=O)cc1[N+](=O)[O-] [row 224]
CHR_Rat_Liver_3_NeoplasticLesion (Rat Liver [2]; chronic rat study, liver): 0
NVS_NR_hPXR (PXR (NR1I2) [10]): 5.395
CLZD_CYP3A4_24 (CYP3A4): 4.897
CLZD_CYP2B6_24 (CYP2B6): 4.989
ATG_PXRE_CIS (PXR (NR1I2) [6]; HepG2): 5.921
CHR_Rat_Liver_1_AnyLesion (Rat Liver [7]; chronic rat study, liver): 0
NCGC_PXR_Agonist_human (PXR Human (NR1I2)): 5.133
CHR_Rat_Liver_2_PreneoplasticLesion (Rat Liver [8]; chronic rat study, liver): 0
ATG_PXR_TRANS (PXR (NR1I2) [9]; HepG2): 5.538
